Reference: patent US7399319B2, “Dyeing composition comprising a dye chosen from styryl and imine dyes and methods for dyeing keratin fibers” (L'Oreal S.A., priority 2005, dated 2008)

Experiment: Shampoo-fastness test on dyed locks
Description: A shampoo-fastness test was performed on the locks of hair dyed with dyes 1 and 2 obtained under the conditions described above. The dyed locks were subjected to 20 shampoo washes according to a cycle comprising wetting the locks with water, washing with shampoo, rinsing with water, and then drying.
The degradation of the color after x shampoo washes was estimated according to the following formula:
[formula] [formula] [formula] [formula] [formula] wherein a*ctrl, b*ctrl, and L*ctrl are the values of a*, b*, and L* of the non-dyed lock; a*dyed, b*dyed, and L*dyed are the values of a*, b*, and L* of the dyed lock before shampooing, whereas a*xSh, b*xSh, and L*xSh are the values of a*, b*, and L* of the dyed lock after x shampoo washes.

[1] = permanent-waved lock, after 5 shampoo washes
[2] = permanent-waved lock, after 12 shampoo washes
[3] = permanent-waved lock, after 18 shampoo washes
[4] = permanent-waved lock, after 20 shampoo washes

% degradation [1] [%] | % degradation [2] [%] | % degradation [3] [%] | % degradation [4] [%] | % degradation (natural lock, after 5 shampoo washes) [%] | % degradation (natural lock, after 12 shampoo washes) [%] | % degradation (natural lock, after 18 shampoo washes) [%] | % degradation (natural lock, after 20 shampoo washes) [%] | Compound
10 | 17 | 18 | 24 | – | – | – | – | CN(C)c1ccc(C=CC23OCCN2c2ccccc2C3(C)C)cc1 (stereo not drawn) [Dye 1]
6 | 6 | 7 | 11 | 4 | 14 | 18 | 20 | CN(C)c1ccc(C=CC=CC23OCCN2c2ccccc2C3(C)C)cc1 (stereo not drawn) [Dye 2]
